Data taken from patent publication US20260132129A1 (Genesis Therapeutics, Inc., priority 2022, published 2026).

Target: T1, PI3Kα H1047R (T47D cells) (Homo sapiens, UniProt P42336, H1047R)
T1 construct: endogenous in cells; host or cells: T47D cells
Test: PI3Kα cellular assay: pAKT HTRF in T47D cells after EGF stimulation
Format: cell-based
Conditions: for IC50: T47D cells (PI3Kα H1047R), pAKT S473 HTRF
In short: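 pAKT read by HTRF in lysates of EGF-stimulated (20 ng/mL, 10 min) T47D H1047R cells. Before stimulation, serum-starved cells (16 h) received compound for 1 h at 37 °C, dosed from 10,000 nM down to 0.5 nM in 3-fold steps.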

[1] = selectivity of T47D (H1047R) over SKBR3 (WT) pAKT IC50
[2] = selectivity T47D (H1047R) over SKBR3 (WT), pAKT HTRF
[3] = 1 hr compound, 20 ng/ml EGF 10 min

T1 sequence (P42336 whole entry H1047R): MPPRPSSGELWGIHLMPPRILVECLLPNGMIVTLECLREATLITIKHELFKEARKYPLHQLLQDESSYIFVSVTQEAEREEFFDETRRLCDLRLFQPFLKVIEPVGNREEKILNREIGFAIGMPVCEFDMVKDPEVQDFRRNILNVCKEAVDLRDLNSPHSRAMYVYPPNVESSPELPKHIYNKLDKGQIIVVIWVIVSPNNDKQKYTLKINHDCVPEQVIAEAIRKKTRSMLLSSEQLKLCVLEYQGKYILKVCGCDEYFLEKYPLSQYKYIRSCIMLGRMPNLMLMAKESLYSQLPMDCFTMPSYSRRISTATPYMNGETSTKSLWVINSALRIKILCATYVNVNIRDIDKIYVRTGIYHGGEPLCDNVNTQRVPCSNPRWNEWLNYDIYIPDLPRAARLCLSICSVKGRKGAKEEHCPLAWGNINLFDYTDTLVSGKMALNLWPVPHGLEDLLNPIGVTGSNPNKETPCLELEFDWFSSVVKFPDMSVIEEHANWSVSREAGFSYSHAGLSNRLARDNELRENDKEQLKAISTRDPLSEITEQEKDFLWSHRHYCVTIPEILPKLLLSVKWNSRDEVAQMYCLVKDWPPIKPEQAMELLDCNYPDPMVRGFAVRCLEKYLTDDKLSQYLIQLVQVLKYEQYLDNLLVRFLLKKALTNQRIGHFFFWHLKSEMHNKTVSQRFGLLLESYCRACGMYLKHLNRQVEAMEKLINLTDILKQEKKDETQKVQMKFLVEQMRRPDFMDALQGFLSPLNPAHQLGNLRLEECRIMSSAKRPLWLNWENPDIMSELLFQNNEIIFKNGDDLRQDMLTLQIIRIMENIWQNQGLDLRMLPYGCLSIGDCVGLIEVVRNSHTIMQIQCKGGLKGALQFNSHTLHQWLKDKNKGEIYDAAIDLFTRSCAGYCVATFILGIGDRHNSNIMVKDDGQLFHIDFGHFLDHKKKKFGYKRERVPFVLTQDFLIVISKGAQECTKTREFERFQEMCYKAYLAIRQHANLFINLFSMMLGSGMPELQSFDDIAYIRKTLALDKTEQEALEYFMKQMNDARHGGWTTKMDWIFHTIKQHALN
T1 sequence (P27986 whole entry partner): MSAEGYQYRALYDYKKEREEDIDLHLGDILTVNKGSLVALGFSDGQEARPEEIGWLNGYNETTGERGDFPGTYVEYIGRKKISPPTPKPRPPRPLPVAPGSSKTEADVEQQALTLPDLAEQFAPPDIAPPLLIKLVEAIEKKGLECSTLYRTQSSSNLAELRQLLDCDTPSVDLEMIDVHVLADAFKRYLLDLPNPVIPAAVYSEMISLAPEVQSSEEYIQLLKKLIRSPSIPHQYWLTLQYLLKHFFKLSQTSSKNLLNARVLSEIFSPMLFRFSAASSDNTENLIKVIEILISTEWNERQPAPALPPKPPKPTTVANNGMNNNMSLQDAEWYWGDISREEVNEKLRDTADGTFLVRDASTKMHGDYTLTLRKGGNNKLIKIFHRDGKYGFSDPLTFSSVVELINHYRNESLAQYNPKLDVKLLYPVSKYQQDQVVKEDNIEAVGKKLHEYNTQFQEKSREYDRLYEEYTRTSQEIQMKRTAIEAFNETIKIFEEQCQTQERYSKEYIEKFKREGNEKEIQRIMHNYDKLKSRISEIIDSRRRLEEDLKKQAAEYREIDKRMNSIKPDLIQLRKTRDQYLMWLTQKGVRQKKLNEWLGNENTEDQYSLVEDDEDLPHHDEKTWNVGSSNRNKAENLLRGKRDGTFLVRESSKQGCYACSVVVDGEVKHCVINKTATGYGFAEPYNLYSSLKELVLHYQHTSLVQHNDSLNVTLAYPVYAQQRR

Compound | IC50 (EGF stimulation) [nM] | T47D pAKT S473 HTRF IC50 (H1047R): T47D (H1047R) selectivity over SKBR3 (WT) [1] | T47D pAKT S473 HTRF IC50 (H1047R): T47D (H1047R) selectivity over SKBR3 (WT) [2] | IC50 [3] [nM]
Cc1cc([C@@H](C)N[C@@H](C(=O)O)c2ccccc2)c2nc(N3CCOCC3)cc(=O)n2c1 [Compound 649] | > 2000 | C (C denotes ≤5-fold) | – | –
Cc1cc([C@H](C)Nc2ccccc2C(=O)O)c2nc(-c3ccc(CC4CCN(C(=O)C5CC5)CC4)c(F)c3)c(C)c(=O)n2c1 [Compound 1075] | > 2000 | – | C (C denotes ≤5-fold) | –
Cc1cc([C@@H](C)Nc2ccccc2C(=O)O)c2nc(-c3cnc(C)c(Cl)c3)cc(=O)n2c1 [Compound 1157] | 100 to 500 | – | A (A denotes >20-fold) | –
Cc1cc(C(C)Nc2ccccc2-c2ccnnc2)c2nc(N3Cc4ccccc4C3)c(C3CC3)c(=O)n2c1 (stereo not shown) [Compound 832] | 500 to 2000 | B (B denotes 20-fold≥value>5-fold) | – | –
Cc1cc(C(C)Nc2ccccc2C(=O)O)c2nc(-c3ccc4c(c3)c(C#N)nn4C3CC3)c(C)c(=O)n2c1 (stereo not shown) [Compound 1026] | 100 to 500 | A (A denotes >20-fold) | – | –
C=CC(=O)Nc1ccc(C(=O)O)c(NC(C)c2cc(C)cn3c(=O)c(C)c(N4Cc5ccccc5C4)nc23)c1 (stereo not shown) [Compound 1039] | > 2000 | C (C denotes ≤5-fold) | – | –
Cc1cc([C@H](C)Nc2ccccc2C(=O)O)c2nc(C3CCN(S(N)(=O)=O)CC3)cc(=O)n2c1 [Compound 756] | > 2000 | C (C denotes ≤5-fold) | – | –
Cc1cc([C@@H](C)Nc2ccccc2C(=O)O)c2nc(-c3ccc(Cl)cc3F)c(C)c(=O)n2c1 (single isomer, unassigned) [Compound 965] | < 100 | A (A denotes >20-fold) | – | –
Cc1cc([C@@H](C)Nc2ccccc2C(=O)O)c2nc(-c3ccc4c(c3)c(C#N)nn4C3CC3)c(C)c(=O)n2c1 [Compound 1048] | 100 to 500 | A (A denotes >20-fold) | – | –
Cc1cc([C@H](C)Nc2ccccc2)c2nc(-c3cc(F)c4c(N)n[nH]c4c3)cc(=O)n2c1 [Compound 258] | – | – | C (C denotes ≤5-fold) | > 2000
Cc1cc([C@@H](C)Nc2ccccc2C(=O)O)c2nc(N3CCS(=O)(=O)CC3)cc(=O)n2c1 [Compound 138] | – | – | C (C denotes ≤5-fold) | > 2000
Cc1cc(C(C)Nc2ccccc2)c2nc(-c3cnc4[nH]nc(-c5ccccc5)c4c3)cc(=O)n2c1 (stereo not shown) [Compound 265] | – | – | C (C denotes ≤5-fold) | > 2000
COCC1=NC(C#N)C(NCc2ccc(-c3nc4c([C@H](C)Nc5ccccc5C(=O)O)cc(C)cn4c(=O)c3C)cc2F)O1 (stereo partly shown) [Compound 1271] | – | – | B (B denotes 20-fold≥value>5-fold) | –
Cc1cc(C(C)Nc2ccccc2C(=O)O)c2nc(Nc3ccc4[nH]c(=O)oc4c3)cc(=O)n2c1 (stereo not shown) [Compound 548] | – | – | C (C denotes ≤5-fold) | > 2000
Cc1cc([C@H](C)Nc2ccccc2C(N)=O)c2nc(-c3cccc(C#N)c3)c(C)c(=O)n2c1 [Compound 1138] | > 2000 | – | C (C denotes ≤5-fold) | –
Cc1cc(C(C)Nc2ccccc2C(=O)O)c2nc(-c3cnc4[nH]nc(-c5ccccc5)c4c3)cc(=O)n2c1 (stereo not shown) [Compound 351] | – | – | C (C denotes ≤5-fold) | > 2000
Cc1cc([C@H](C)Nc2ccccc2C(=O)O)c2nc(-c3cc4c(N)nn(C)c4cc3C)c(C)c(=O)n2c1 [Compound 733] | – | C (C denotes ≤5-fold) | – | –
Cc1cc([C@H](C)Nc2ccccc2C(=O)O)c2nc(N3CCOC[C@H]3C)cc(=O)n2c1 [Compound 297] | – | – | A (A denotes >20-fold) | 100 to 500
CNc1nn(C)c2ccc(-c3cc(=O)n4cc(C)cc([C@H](C)Nc5ccccc5C(=O)O)c4n3)cc12 [Compound 768] | 100 to 500 | A (A denotes >20-fold) | – | –
Cc1cc([C@H](C)Nc2ccccc2C(=O)O)c2nc(-c3cccc(C(F)F)c3)cc(=O)n2c1 [Compound 1114] | < 100 | – | A (A denotes >20-fold) | –
Cc1cc([C@@H](C)Nc2ccccc2C(=O)O)c2nc(-c3ccc4c(c3)NC(=O)C4)cc(=O)n2c1 [Compound 575] | – | – | A (A denotes >20-fold) | 100 to 500
Cc1cc(C(C)Nc2ccccc2C(=O)O)c2nc(-c3ccnnc3)cc(=O)n2c1 (stereo not shown) [Compound 460] | – | – | B (B denotes 20-fold≥value>5-fold) | 500 to 2000

Compound | IC50 (EGF stimulation) [nM] | T47D pAKT S473 HTRF IC50 (H1047R): T47D (H1047R) selectivity over SKBR3 (WT) [1] | T47D pAKT S473 HTRF IC50 (H1047R): T47D (H1047R) selectivity over SKBR3 (WT) [2] | IC50 [3] [nM]
Cc1cc(C(C)Nc2ccccc2C(=O)O)c2nc(N3CCN(C(=O)CCN)CC3)cc(=O)n2c1 (stereo not shown) [Compound 529] | – | – | C (C denotes ≤5-fold) | > 2000
Cc1cc([C@H](C)Nc2ccccc2C(=O)O)c2nc(-c3cnc4cc(O)ccn34)cc(=O)n2c1 [Compound 812] | > 2000 | C (C denotes ≤5-fold) | – | –
Cc1cc(C(C)Nc2ccccc2C(=O)O)c2nc(Nc3ccc4[nH]c(=O)[nH]c4c3)cc(=O)n2c1 (stereo not shown) [Compound 505] | – | – | C (C denotes ≤5-fold) | > 2000
Cc1cc([C@H](C)Nc2ccccc2C(=O)O)c2nc(-c3ccc4c(c3)c(C)cn4C)cc(=O)n2c1 [Compound 798] | < 100 | A (A denotes >20-fold) | – | –
Cc1cc(C(C)Nc2ccccc2C(=O)O)c2nc(N3CCSCC3)cc(=O)n2c1 (stereo not shown) [Compound 240] | – | – | A (A denotes >20-fold) | < 100
Cc1cc(C(C)Nc2ccc(F)cc2C(=O)O)c2nc(-c3cccc(F)c3)c(C)c(=O)n2c1 (stereo not shown) [Compound 1238] | < 100 | – | A (A denotes >20-fold) | –
Cc1cc(C(C)Nc2ccccc2C(=O)O)c2nc(N3C[C@@H](C)O[C@@H](C)C3)cc(=O)n2c1 (stereo partly shown) [Compound 315] | – | – | B (B denotes 20-fold≥value>5-fold) | 500 to 2000
Cc1cc([C@@H](C)Nc2ccccc2C2(O)COC2)c2nc(-c3cccc(F)c3)c(C)c(=O)n2c1 [Compound 1399] | 100 to 500 | – | A (A denotes >20-fold) | –
Cc1cc(C(C)Nc2ccccc2C(=O)O)c2nc(N3CCO[C@H](C)C3)cc(=O)n2c1 (stereo partly shown) [Compound 372] | – | – | B (B denotes 20-fold≥value>5-fold) | 100 to 500
CC(Nc1ccccc1C(=O)O)c1cc(C(F)(F)F)cn2c(=O)cc(N3Cc4ccccc4C3)nc12 (stereo not shown) [Compound 921] | > 2000 | C (C denotes ≤5-fold) | – | –
Cc1cc(C(C)Nc2ccccc2C(N)=O)c2nc(-c3cccnc3)c(C)c(=O)n2c1 (stereo not shown) [Compound 1152] | 100 to 500 | – | A (A denotes >20-fold) | –
Cc1cc([C@H](C)Nc2c(F)cccc2C(=O)O)c2nc(N3CCOCC3)cc(=O)n2c1 [Compound 334] | – | – | C (C denotes ≤5-fold) | > 2000
Cc1cc([C@@H](C)Nc2ccccc2C(=O)O)c2nc(N3CC[Si](C)(C)CC3)cc(=O)n2c1 [Compound 446] | – | – | C (C denotes ≤5-fold) | > 2000
Cc1cc([C@@H](C)Nc2ccccc2C(=O)O)c2nc(-c3ccc4ccnn4c3)c(C)c(=O)n2c1 [Compound 1298] | < 100 | – | A (A denotes >20-fold) | –
Cc1cc([C@H](C)Nc2ccccc2-c2ccnnc2)c2cc([C@H]3CCCOC3)c(C)c(=O)n2c1 [Compound 1406] | – | – | A (A denotes >20-fold) | –
Cc1cc([C@H](C)Nc2ccccc2C(=O)O)c2ncc(Cc3ccc(F)cc3)c(=O)n2c1 [Compound 914] | > 2000 | C (C denotes ≤5-fold) | – | –
Cc1cc([C@H](C)Nc2cnncc2C(=O)O)c2nc(N3CCOCC3)cc(=O)n2c1 [Compound 376] | – | – | C (C denotes ≤5-fold) | > 2000
Cc1cc(C(C)Nc2ccccc2-c2nnn[nH]2)c2nc(N3Cc4ccccc4C3)cc(=O)n2c1 (stereo not shown) [Compound 877] | 100 to 500 | A (A denotes >20-fold) | – | –
Cc1cc([C@@H](C)Oc2ccccc2C2(O)CS(=O)(=O)C2)c2nc(-c3cccc(F)c3)c(C)c(=O)n2c1 [Compound 1392] | > 2000 | – | C (C denotes ≤5-fold) | –
Cc1cc([C@H](C)Oc2ccccc2C2(O)CS(=O)(=O)C2)c2nc(-c3cccc(F)c3)c(C)c(=O)n2c1 (single isomer, unassigned) [Compound 1393] | < 100 | – | A (A denotes >20-fold) | –
CC#Cc1nc2c(C(C)Nc3ccccc3C(=O)O)cc(C)cn2c(=O)c1C (stereo not shown) [Compound 1185] | 500 to 2000 | – | B (B denotes 20-fold≥value>5-fold) | –
Cc1cc([C@@H](C)Nc2ccccc2S(=O)(=O)O)c2nc(-c3ccc(C4CC4)cc3)c(C3CC3)c(=O)n2c1 [Compound 1274] | 100 to 500 | – | A (A denotes >20-fold) | –
